Experimental data as given in PMC8145938, “Triphenilphosphonium Analogs of Chloramphenicol as Dual-Acting Antimicrobial and Antiproliferating Agents” (Antibiotics, 2021).

Key:
[1] = test system: Rabbit Reticulocyte Lysate; assay: inhibition of eukaryotic in vitro translation (firefly luciferase); format: biochemical; conditions: 30 µM compound
Protocol: The next step was to test the new CAM-Cn-TPP compounds for their ability to inhibit the synthesis of the firefly luciferase reporter in vitro in a cell-free transcription-translation system based on an E. coli S30 extract.
The inhibition of eukaryotic translation was measured in Rabbit Reticulocyte Lysate (Promega) according to the manufacturer’s protocol. The reactions were programmed with 100 ng of Fluc mRNA and were carried out in 5 μL aliquots at 37 °C for 30 min. The activity of the in vitro synthesized luciferase was assessed using 5 μL of the substrate from the Steady-Glo Luciferase Assay System (Promega).

[2] = test system: CSC-like TNBC cells (MDA-MB-231 and BT-549, sensitive and chemoresistant); assay: tumoursphere formation and viability of CSC-like cells; format: cell-based; conditions: for survival of CSCs: CSCs from parental and resistant TNBC cell lines; for spheroid formation: non-adherent conditions, 5 days
Text: Several TPP-containing compounds have been proposed for the elimination of CSCs by the Lisanti group. In the current work, we studied the effect of CAM-TPP derivatives on CSC-like TNBC cell models.
The MDA-MB-231 (RRID: CVCL_0062) and BT-549 (RRID: CVCL_1092) cell lines were purchased from ATCC and cultured in DMEM/F12 (Gibco, Life Technologies, 31330-038) supplemented with 10% FBS, 1% Pen-Strep, 1% Sodium Pyruvate, and 1% L-glutamine. Chemoresistant cell lines were established with continuous treatment for 6 months with the anticancer therapeutic agent, cyclophosphamide (Rcyclo), as previously described. These cell lines were authenticated using short tandem repeat (STR) profiling within the last three years. To obtain CSC-like cells, a single cell suspension was prepared using enzymatic disaggregation (1× Trypsin-EDTA, Gibco, 25300062), and the cells were plated at a density of 10.000–12.000 cells per ml in a Cancer Stem Cell medium (C-28070, PromoCell, Heidelberg, Germany) in poly-2-hydroxyethyl methacrylate (Poly-HEMA, Santa Cruz Biotechnology, Dallas, TX, USA, sc-253284)-coated plates. […] The cells were […] with corresponding compounds or DMSO (control), followed by the abovementioned procedure of tumoursphere formation. The relative numbers of tumourspheres per well were counted manually. The experiments were performed independently at least 2 times, with several replicates.
(§1) The survival assay was performed essentially as described earlier. In short, cells were seeded into a 96-well plate, followed by treatment with increasing concentrations of the corresponding CAM-TPP derivatives for 3 days. 3-(4,5-dimethylthiazol-2-yl)-2,5-diphenyltetrazolium bromide (0.5 mg/mL MTT; Sigma-Aldrich) dissolved in media was added to each well. Following incubation for 2 h, the supernatant was carefully removed from the wells, and 100 µL of a DMSO:ethanol mix (1:1) was added to each well, followed by shaking for 10 min. The absorbance was measured at 570 nm in Bio Spec 1601, Shimadzu spectrometer. The OD570 of the DMSO solution in each well was considered to be proportional to the number of cells. The OD570 of the control (treatment without supplement) was considered to be 100%. The results were expressed as the means ± SEM. The data were analyzed using the GraphPad Prism 7 PRIZM computer software under the license of the Statistical Department (Vall’ d Hebron Hospital, Barcelona, Spain).

normal human fibroblasts = assay: cell viability of normal cells; format: cell-based; conditions: submicromolar concentrations, preliminary results
Protocol: We also compared the effects of the obtained compounds on the suppression of normal cell growth.
as §1

Structure (SMILES) | effect on eukaryotic in vitro translation [1] | survival of CSCs [2] | spheroid formation [2] | effect on normal cell growth compared with cancer cells (normal human fibroblasts)
O=C(CCCCCCCCCC[P+](c1ccccc1)(c1ccccc1)c1ccccc1)NCCCC(=O)N[C@H](CO)[C@H](O)c1ccc([N+](=O)[O-])cc1 [CAM-C14-TPP, N-[(1R,2R)-1,3-dihydroxy-1-(4-nitrophenyl)propan-2-yl]-4-(triphenyl)phosphoniumundecanamidobutamide bromide] | had no effect on eukaryotic in vitro translation | reduced the survival of CSCs formed from parental and resistant TNBC cell lines | significant decrease in spheroid formation | 
O=C(CCCCCCCCCC[P+](c1ccccc1)(c1ccccc1)c1ccccc1)N[C@H](CO)[C@H](O)c1ccc([N+](=O)[O-])cc1 [CAM-C10-TPP, (N-{[(1R,2R)-1,3-dihydroxy-1-(4-nitrophenyl)propan-2-yl]amino}-11-oxoundecyl)(triphenyl)phosphonium bromide] | had no effect on eukaryotic in vitro translation | reduced the survival of CSCs formed from parental and resistant TNBC cell lines | significant decrease in spheroid formation | less affected by submicromolar concentrations of CAM-TPP derivatives than cancer cells
